20 molecules from US8653111B2, “Substituted dihydropyrazolones for treating cardiovascular and hematological diseases” (Bayer Intellectual Property GmbH, priority 2006, dated 2014) can be followed below.

Counter-ions that a name gives are not always drawn.

In this test the target is HIF prolyl hydroxylase. Description: Inhibition of the activity of HIF prolyl hydroxylase (VBC complex binding to hydroxylated peptide substrate). The conditions noted are these: cell lysate containing prolyl hydroxylase, peptide biotin-DLDLEMLAPYIPMDDDFQL as substrate. Type of test: biochemical. How it is done:
1. In vitro Tests for Determination of the Activity and Selectivity of HIF Prolyl 4-Hydroxylase Inhibitors 1.a) Inhibition of the Activity of HIF Prolyl Hydroxylase:
Hydroxylated HIF bonds specifically to the von Hippel-Lindau protein-elongin B-elongin C complex (VBC complex). This interaction occurs only if HIF is hydroxylated on a conserved prolyl radical. It is the basis for the biochemical determination of HIF prolyl hydroxylase activity. The test is carried out as described [Oehme F., Jonghaus W., Narouz-Ott L., Huetter J., Flamme I., Anal. Biochem. 330 (1), 74-80 (2004)]:
A clear 96-well microtiter plate coated with NeutrAvidin HBC (Pierce) is incubated with blocker casein for 30 minutes. The plate is then washed three times with 200 μl each time of wash buffer (50 mM Tris, pH 7.5, 100 mM NaCl, 10% (v/v) blocker casein, 0.05% (v/v) Tween 20) per well. The peptide biotin-DLDLEMLAPYIPMDDDFQL (Eurogentec, 4102 Seraing, Belgium) is added in a concentration of 400 nM in 100 μl wash buffer. This peptide serves as a substrate for the prolyl hydroxylation and is bonded to the microtiter plate. After incubation for 60 minutes, the plate is washed three times with wash buffer, incubated with 1 mM biotin in blocker casein for 30 minutes and then washed again three times with wash buffer.
To carry out the prolyl hydroxylase reaction, the peptide substrate bonded to the plate is incubated with a cell lysate containing prolyl hydroxylase for 1 to 60 minutes. The reaction takes place in 100 μl reaction buffer (20 mM Tris, pH 7.5, 5 mM KCl, 1.5 mM MgCl2, 1 μM-1 mM 2-oxoglutarate, 10 μM FeSO4, 2 mM ascorbate) at room temperature. The reaction mixture moreover contains various concentrations of the prolyl hydroxylase inhibitor to be tested. The test substance is preferably, but not exclusively, employed at concentrations of between 1 nM and 100 μM. The reaction is stopped by washing the plate three times with wash buffer.
For quantitative determination of the prolyl hydroxylation, a fusion protein which contains both thioredoxin from E. coli and the VBC complex in 80 μl bonding buffer (50 mM Tris, pH 7.5, 120 mM NaCl) is added. After 15 minutes, 10 μl of a solution of polyclonal anti-thioredoxin antibodies from rabbit in bonding buffer are added. After a further 30 minutes, 10 μl of a solution of anti-rabbit immunoglobulin coupled to horseradish peroxidase in bonding buffer are added. After incubation at room temperature for 30 minutes, the plate is washed three times with wash buffer in order to remove non-bonded VBC complex and antibodies. To determine the amount of bonded VBC complex, the plate is incubated with TMB for 15 minutes. The color reaction is ended by addition of 100 μl 1 M sulfuric acid. The amount of bonded VBC complex is determined by measurement of the optical density at 450 nm. It is proportional to the amount of hydroxylated proline in the peptide substrate.
Alternatively, a VBC complex coupled to europium (Perkin Elmer) can be used for detection of the prolyl hydroxylation. In this case, the amount of bonded VBC complex is determined by the fluorescence with respect to time. The use of VBC complex labeled with [^35S]-methionine is moreover possible. For this, the radioactively labeled VBC complex can be prepared by in vitro transcription-translation in reticulocyte lysate.
`CC(C)(C)COc1ccc(-n2[nH]cc(-n3ccnn3)c2=O)nc1` [Example 85, 2-[5-(2,2-Dimethylpropoxy)pyridin-2-yl]-4-(1H-1,2,3-triazol-1-yl)-1,2-dihydro-3H-pyrazol-3-one hydrochloride] showed an IC50 of 190 nM. To `O=c1c(-n2ccnc2)c[nH]n1-c1cc(N2CCCCC2)ncn1` [Example 10, 4-(1H-Imidazol-1-yl)-2-(6-piperidin-1-ylpyrimidin-4-yl)-1,2-dihydro-3H-pyrazol-3-one] belongs 500 nM; to `Cc1cc(-c2c[nH]n(-c3ccccn3)c2=O)on1` [Example 50], 1400 nM. The result for `Cc1ccnc(-n2[nH]cc(-n3ccnn3)c2=O)c1` [Example 7, 2-(4-Methylpyridin-2-yl)-4-(1H-1,2,3-triazol-1-yl)-1,2-dihydro-3H-pyrazol-3-one hydrochloride] reads 340 nM. To `Cc1cc(-n2[nH]cc(-n3ccnn3)c2=O)ncc1Br` [Example 61] belongs 1100 nM; to `CC1CCN(c2cc(-n3[nH]cc(-n4ccnn4)c3=O)ncn2)CC1` [Example 129], 360 nM; to `Cc1cnc(-n2[nH]cc(-n3ccnc3)c2=O)cc1C` [Example 91, 2-(4,5-Dimethylpyridin-2-yl)-4-(1H-imidazol-1-yl)-1,2-dihydro-3H-pyrazol-3-one hydrochloride], 2800 nM. Molecule `CCc1cc(-n2[nH]cc(-n3cnc(C(F)(F)F)c3)c2=O)ncn1` [Example 60] returned a half-inhibitory concentration (IC50) of 1400 nM.

With `CCSc1cc(-n2[nH]cc(-n3ccnn3)c2=O)ncn1` [Example 103, 2-[6-(Ethylsulfanyl)pyrimidin-4-yl]-4-(1H-1,2,3-triazol-1-yl)-1,2-dihydro-3H-pyrazol-3-one hydrochloride], the IC50 was 350 nM. This IC50 lies about 4-fold lower than the previous one. To `CC(C)c1cn(-c2c[nH]n(-c3ccc(CO)cn3)c2=O)nn1` [Example 45] belongs 780 nM.

The molecule `COC1CCCN(c2cc(-n3[nH]cc(-n4ccnc4)c3=O)ncn2)C1` (centres unmarked) [Example 166] gave an IC50 of 690 nM. The result for `O=c1c(-n2ccnc2)c[nH]n1-c1cc(N2CC(O)C2)ncn1` [Example 101, 2-[6-(3-Hydroxyazetidin-1-yl)pyrimidin-4-yl]-4-(1H-imidazol-1-yl)-1,2-dihydro-3H-pyrazol-3-one hydrochloride] reads 1700 nM; that for `O=c1c(-n2ccnn2)c[nH]n1-c1cc(N2CCOCC2)ncn1` [Example 72, 2-(6-Morpholin-4-ylpyrimidin-4-yl)-4-(1H-1,2,3-triazol-1-yl)-1,2-dihydro-3H-pyrazol-3-one hydrochloride], 490 nM.

For the molecule `Cc1cn(-c2c[nH]n(-c3cnccn3)c2=O)nn1` [Example 43], the IC50 was 1800 nM. To `O=c1c(-c2nnc(C(F)(F)F)s2)c[nH]n1-c1ccccn1` [Example 5] belongs 1200 nM; to `CC(C)(C)OC(=O)c1ccc(-n2[nH]cc(-n3ccnn3)c2=O)nc1` [Example 62, 6-[5-Oxo-4-(1H-1,2,3-triazol-1-yl)-2,5-dihydro-1H-pyrazol-1-yl]pyridine-3-carboxylic acid tert-butyl ester hydrochloride], 50 nM. The result for `O=c1c(-n2cnc(C(F)(F)F)c2)c[nH]n1-c1ccc(CO)cn1` [Example 12, 2-[5-(Hydroxymethyl)pyridin-2-yl]-4-[4-(trifluoromethyl)-1H-imidazol-1-yl]-1,2-dihydro-3H-pyrazol-3-one] reads 750 nM. The result for `O=c1c(-n2ccnn2)c[nH]n1-c1cc(C2CC2)ncn1` [Example 17, 2-(6-Cyclopropylpyrimidin-4-yl)-4-(1H-1,2,3-triazol-1-yl)-1,2-dihydro-3H-pyrazol-3-one hydrochloride] reads 560 nM; that for `O=c1c(-n2ccnn2)c[nH]n1-c1cc(C(F)(F)F)ccn1` [Example 83, 4-(1H-1,2,3-Triazol-1-yl)-2-[4-(trifluoromethyl)pyridin-2-yl]-1,2-dihydro-3H-pyrazol-3-one hydrochloride], 1900 nM. `O=c1c(-n2ccnn2)c[nH]n1-c1cc(N2CCSCC2)ncn1` [Example 113]: the IC50 is 740 nM.

By IC50 is commonly meant the concentration at which inhibition is half-maximal. High values mean lower potency, low ones higher potency.
